Assay results as given in PubChem BioAssay (NCI).
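The compound was tested at five concentrations on cells cultured in 96-well plates, with a 48-hour exposure period. Here, GI50 denotes the concentration required for 50% inhibition of growth. At the TGI there is no net growth.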

Assays:
Assay in all cases: growth of human tumour cells (NCI), 48 h
[1] = tested on: SK-MEL-2 melanoma
[2] = tested on: OVCAR-5 ovarian
[3] = tested on: MDA-MB-435
[4] = tested on: SF-295 CNS
[5] = tested on: SK-OV-3 ovarian
[6] = tested on: OVCAR-8 ovarian
[7] = tested on: ACHN renal
[8] = tested on: HOP-62 NSCLC
[9] = tested on: RXF 393 renal
[10] = tested on: SK-MEL-28 melanoma
[11] = tested on: SR leukemia
[12] = tested on: SNB-75 CNS
[13] = tested on: CAKI-1 renal
[14] = tested on: NCI-H226 lung
[15] = tested on: UACC-257 melanoma
[16] = tested on: 786-0 renal
[17] = tested on: CCRF-CEM leukemia
[18] = tested on: MDA-MB-231 breast
[19] = tested on: A549 NSCLC
[20] = tested on: UACC-62 melanoma
[21] = tested on: SN12C renal
[22] = tested on: M14 melanoma
[23] = tested on: TK-10 renal
[24] = tested on: HCT-15 colon
[25] = tested on: NCI/ADR-RES ovarian
[26] = tested on: HCC-2998 colon
[27] = tested on: KM12 colon
[28] = tested on: NCI-H460 lung
[29] = tested on: HL-60(TB) leukemia
[30] = tested on: HT29 colon
[31] = tested on: MALME-3M melanoma
[32] = tested on: T-47D breast
[33] = tested on: HOP-92 NSCLC
[34] = tested on: NCI-H23 lung
[35] = tested on: BT-549 breast
[36] = tested on: OVCAR-3 ovarian
[37] = tested on: SNB-19 CNS
[38] = tested on: HCT-116 colon
[39] = tested on: DU-145 prostate
[40] = tested on: U251 CNS
[41] = tested on: SF-539 CNS
[42] = tested on: SF-268 CNS
[43] = tested on: IGROV1 ovarian
[44] = tested on: RPMI-8226 leukemia
[45] = tested on: NCI-H522 lung
[46] = tested on: MOLT-4 leukemia
[47] = tested on: SW-620 colon
[48] = tested on: UO-31 renal
[49] = tested on: MCF7 breast
[50] = tested on: A498 renal
[51] = tested on: HS 578T breast
[52] = tested on: LOX IMVI melanoma
[53] = tested on: COLO 205 colon
[54] = tested on: PC-3 prostate
[55] = tested on: SK-MEL-5 melanoma
[56] = tested on: EKVX NSCLC
[57] = tested on: K-562 leukemia
[58] = tested on: OVCAR-4 ovarian

In the case of Cc1ccc(C)c(NC2=C(Cl)C(=O)c3nc(C)ccc3C2=O)c1, the GI50 [1] is reported as 1930 nM, the TGI [1] is reported as 3890 nM and the GI50 [2] is reported as 2410 nM. For the same compound, the TGI [2] was 4510 nM, the GI50 [3] was 1410 nM and the TGI [3] was 3270 nM. It also gave a GI50 [4] of 1750 nM, a TGI [4] of 3310 nM and a GI50 [5] of 2740 nM. The TGI [5] was 14600 nM, the GI50 [6] was 1790 nM and the TGI [6] was 6010 nM. For the same compound, the GI50 [7] was 1450 nM, the TGI [7] was 2910 nM and the GI50 [8] was 1450 nM. For the same compound, the TGI [8] was 2990 nM, the GI50 [9] was 1220 nM and the TGI [9] was 2500 nM. It also gave a GI50 [10] of 1990 nM, a TGI [10] of 3700 nM and a GI50 [11] of 695 nM. The TGI [11] was 3230 nM, the GI50 [12] was 1220 nM and the TGI [12] was 2640 nM. The GI50 [13] was 1430 nM, the TGI [13] was 3030 nM and the GI50 [14] was 1670 nM. For the same compound, the TGI [14] was 4400 nM, the GI50 [15] was 1420 nM and the TGI [15] was 2820 nM. The GI50 [16] was 1790 nM, the TGI [16] was 3740 nM and the GI50 [17] was 1610 nM. It also gave a TGI [17] of 5800 nM, a GI50 [18] of 969 nM and a TGI [18] of 2820 nM. It also gave a GI50 [19] of 2100 nM, a TGI [19] of 4750 nM and a GI50 [20] of 1560 nM. It also gave a TGI [20] of 3260 nM, a GI50 [21] of 1050 nM and a TGI [21] of 3150 nM. The GI50 [22] was 1460 nM, the TGI [22] was 2900 nM and the GI50 [23] was 2610 nM. For the same compound, the TGI [23] was 4240 nM, the GI50 [24] was 848 nM and the TGI [24] was 2560 nM. For the same compound, the GI50 [25] was 1330 nM, the TGI [25] was 5020 nM and the GI50 [26] was 1750 nM. It also gave a TGI [26] of 3250 nM, a GI50 [27] of 1540 nM and a TGI [27] of 3570 nM. For the same compound, the GI50 [28] was 1880 nM, the TGI [28] was 3950 nM and the GI50 [29] was 1160 nM. For the same compound, the TGI [29] was 3360 nM, the GI50 [30] was 3080 nM and the TGI [30] was 8770 nM. For the same compound, the GI50 [31] was 2120 nM, the TGI [31] was 4170 nM and the GI50 [32] was 1260 nM. It also gave a TGI [32] of 3720 nM, a GI50 [33] of 1840 nM and a TGI [33] of 3780 nM. For the same compound, the GI50 [34] was 1260 nM, the TGI [34] was 3920 nM and the GI50 [35] was 1320 nM. It also gave a TGI [35] of 2660 nM, a GI50 [36] of 292 nM and a TGI [36] of 1150 nM. The GI50 [37] was 1490 nM, the TGI [37] was 3420 nM and the GI50 [38] was 333 nM. It also gave a TGI [38] of 1510 nM, a GI50 [39] of 1600 nM and a TGI [39] of 3080 nM. It also gave a GI50 [40] of 1290 nM, a TGI [40] of 2780 nM and a GI50 [41] of 1650 nM. For the same compound, the TGI [41] was 3120 nM, the GI50 [42] was 1420 nM and the TGI [42] was 3290 nM. It also gave a GI50 [43] of 1360 nM, a TGI [43] of 3300 nM and a GI50 [44] of 708 nM. For the same compound, the TGI [44] was 3340 nM, the GI50 [45] was 1920 nM and the TGI [45] was 4380 nM. The GI50 [46] was 633 nM, the TGI [46] was 4090 nM and the GI50 [47] was 1790 nM. The TGI [47] was 4270 nM, the GI50 [48] was 1250 nM and the TGI [48] was 2640 nM. It also gave a GI50 [49] of 917 nM, a TGI [49] of 3010 nM and a GI50 [50] of 2030 nM. For the same compound, the TGI [50] was 8140 nM, the GI50 [51] was 2050 nM and the TGI [51] was 5760 nM. It also gave a GI50 [52] of 288 nM, a TGI [52] of 1590 nM and a GI50 [53] of 2090 nM. It also gave a TGI [53] of 4490 nM, a GI50 [54] of 1140 nM and a TGI [54] of 2920 nM. For the same compound, the GI50 [55] was 1500 nM and the TGI [55] was 2890 nM.

With COc1ccc2c(c1)C=CC1(O2)Oc2ccc(OC)cc2C=C1C (stereo not given) the GI50 [1] was 392 nM, the TGI [1] was 54000 nM and the GI50 [2] was 1760 nM. For the same compound, the TGI [2] was over 100000 nM, the GI50 [3] was 222 nM and the TGI [3] was 545 nM. It also gave a GI50 [4] of 384 nM, a TGI [4] of over 100000 nM and a GI50 [5] of 538 nM. The TGI [5] was over 100000 nM, the GI50 [6] was 944 nM and the TGI [6] was 4560 nM. It also gave a GI50 [56] of 1820 nM, a TGI [56] of over 100000 nM and a GI50 [7] of 673 nM. The TGI [7] was over 54500 nM, the GI50 [8] was 615 nM and the TGI [8] was over 59200 nM. The GI50 [9] was 432 nM, the TGI [9] was 17700 nM and the GI50 [10] was 4800 nM. For the same compound, the TGI [10] was over 81900 nM, the GI50 [11] was 335 nM and the TGI [11] was 22700 nM. It also gave a GI50 [12] of 273 nM, a TGI [12] of over 100000 nM and a GI50 [13] of 632 nM. It also gave a TGI [13] of over 100000 nM, a GI50 [14] of 4410 nM and a TGI [14] of over 65600 nM. It also gave a GI50 [15] of 820 nM, a TGI [15] of over 48900 nM and a GI50 [16] of 742 nM. It also gave a TGI [16] of over 36200 nM, a GI50 [17] of 366 nM and a TGI [17] of 4080 nM. For the same compound, the GI50 [18] was 1160 nM, the TGI [18] was over 100000 nM and the GI50 [19] was 1000 nM. The TGI [19] was over 100000 nM, the GI50 [20] was 390 nM and the TGI [20] was over 32900 nM. For the same compound, the GI50 [21] was 800 nM, the TGI [21] was over 55900 nM and the GI50 [22] was 402 nM. For the same compound, the GI50 [23] was 7810 nM, the TGI [23] was over 100000 nM and the GI50 [24] was 453 nM. The TGI [24] was 31400 nM, the GI50 [25] was 397 nM and the TGI [25] was over 100000 nM. The GI50 [26] was 1350 nM, the TGI [26] was 7360 nM and the GI50 [27] was 506 nM. The TGI [27] was over 100000 nM, the GI50 [28] was 422 nM and the TGI [28] was 2050 nM. For the same compound, the GI50 [29] was 288 nM, the GI50 [30] was 345 nM and the TGI [30] was 1620 nM. The GI50 [31] was 33000 nM, the TGI [31] was over 100000 nM and the GI50 [32] was 2030 nM. It also gave a TGI [32] of over 65200 nM, a GI50 [33] of 189 nM and a TGI [33] of 930 nM. For the same compound, the GI50 [57] was 358 nM, the TGI [57] was over 100000 nM and the GI50 [34] was 1370 nM. For the same compound, the TGI [34] was over 100000 nM, the GI50 [58] was 28800 nM and the TGI [58] was over 100000 nM. It also gave a GI50 [35] of 332 nM, a TGI [35] of 1690 nM and a GI50 [37] of 598 nM. The TGI [37] was over 100000 nM, the GI50 [38] was 509 nM and the TGI [38] was over 24200 nM. For the same compound, the GI50 [39] was 1130 nM, the TGI [39] was over 100000 nM and the GI50 [40] was 456 nM. It also gave a TGI [40] of 7860 nM, a GI50 [41] of 396 nM and a TGI [41] of 3020 nM. The GI50 [42] was 1810 nM, the TGI [42] was over 100000 nM and the GI50 [43] was 704 nM. The TGI [43] was over 100000 nM, the GI50 [44] was 475 nM and the TGI [44] was over 25400 nM. It also gave a GI50 [45] of 303 nM, a TGI [45] of 24100 nM and a GI50 [46] of 447 nM. For the same compound, the TGI [46] was over 71600 nM, the GI50 [47] was 380 nM and the TGI [47] was 16700 nM. For the same compound, the GI50 [48] was 1310 nM, the TGI [48] was over 46900 nM and the GI50 [49] was 652 nM. It also gave a TGI [49] of over 100000 nM, a GI50 [50] of 251 nM and a TGI [50] of 1060 nM. The GI50 [51] was 348 nM, the TGI [51] was over 100000 nM and the GI50 [52] was 647 nM. It also gave a TGI [52] of 8520 nM, a GI50 [54] of 461 nM and a TGI [54] of over 41900 nM. For the same compound, the GI50 [55] was 695 nM and the TGI [55] was 13500 nM.
